{"source": "patent US6610835B1", "about": "“Sphingolipid derivatives and their methods of use” (Emory University, priority 1998, dated 2003)", "key": {"[1]": {"tested_on": "renal bladder and colon cancer cell lines", "conditions": "cited from earlier work"}, "HT-29 cells": {"tested_on": "HT-29 cells", "assay": "MTT assay, induction of cell death by sphingolipids", "assay_type": "cell-based, human", "method": "The activity of sphingosine, sphinganine and 1-deoxy-5-hydroxy-sphinganine in a human colon cancer cell line was investigated. The structures of the tested compounds appear below. [drawing 4]\nAn MTT assay was used to determine the cytotoxicity of the compounds shown above. Only cells with intact mitochondria are able to form formazane crystals, whereas late apoptotic and necrotic cells are not. The optical density of formazane crystals is used to infer cell viability. A 15 μM treatment of 1-deoxy-5-hydroxy-sphinganine results in nearly 100% cell death in HT-29 cells after 24 hours."}, "[2]": {"conditions": "in vivo; cited from earlier work"}, "DMH-induced tumors": {"tested_on": "DMH-induced tumors", "conditions": "cited from earlier work"}, "[3]": {"tested_on": "aberrant colonic crypts induced by DMH", "conditions": "diet supplemented with 0.05% sphingomyelin, analyzed on week 7; cited from earlier work"}, "[4]": {"conditions": "mouse, in vivo; cited from earlier work"}, "C3H 10T1/2 cells": {"tested_on": "C3H 10T1/2 cells", "conditions": "cited from earlier work; for promotion of transformed foci by phorbol esters: levels that affected protein kinase C but not noticeably cytotoxic"}, "[5]": {"tested_on": "ACF (DMH-initiated colonic tumors)", "assay": "Chemically (DMH) induced colon cancer model, aberrant crypt foci (ACF) after dietary supplementation", "assay_type": "in vivo, Female CF1 mice", "conditions": "for ACF: four weeks after DMH, control 30.2±4.19", "method": "Female CF1 mice were injected with DMH to initiate colonic tumors. After initiation, the mice were fed and AIN 76A diet supplemented with GluAcCer (0.025 or 0.1% of the diet). The control group was fed the AIN 76A diet without supplements (one group without DMH and the other with DMH only). After four weeks, the mice were killed, the colons excised, and evaluated for the appearance of ACF."}, "colonic crypts": {"tested_on": "colonic crypts", "assay": "Cell proliferation in colonic crypts of DMH-treated mice fed GluAcCer", "assay_type": "in vivo", "method": "Female CF1 mice were injected with DMH to initiate colonic tumors. […] The control group was fed the AIN 76A diet without supplements (one group without DMH and the other with DMH only). After four weeks, the mice were killed, the colons excised, and evaluated for the appearance of ACF.\nThe effect of GluAcCer on cell proliferation was also investigated since a deregulation of cell growth is observed in carcinogenesis. […] Therefore, feeding synthetic GluAcCer to mice suppresses the formation of early stages in colon carcinogenesis, possibly by restricting the proliferation to the lower half of the colonic crypt."}, "[6]": {"molecular_target": "T1, β-glucuronidase from E. coli (Escherichia coli, UniProt P05804)", "T1 construct": "purchased Sigma", "T1 sequence (P05804 whole entry)": "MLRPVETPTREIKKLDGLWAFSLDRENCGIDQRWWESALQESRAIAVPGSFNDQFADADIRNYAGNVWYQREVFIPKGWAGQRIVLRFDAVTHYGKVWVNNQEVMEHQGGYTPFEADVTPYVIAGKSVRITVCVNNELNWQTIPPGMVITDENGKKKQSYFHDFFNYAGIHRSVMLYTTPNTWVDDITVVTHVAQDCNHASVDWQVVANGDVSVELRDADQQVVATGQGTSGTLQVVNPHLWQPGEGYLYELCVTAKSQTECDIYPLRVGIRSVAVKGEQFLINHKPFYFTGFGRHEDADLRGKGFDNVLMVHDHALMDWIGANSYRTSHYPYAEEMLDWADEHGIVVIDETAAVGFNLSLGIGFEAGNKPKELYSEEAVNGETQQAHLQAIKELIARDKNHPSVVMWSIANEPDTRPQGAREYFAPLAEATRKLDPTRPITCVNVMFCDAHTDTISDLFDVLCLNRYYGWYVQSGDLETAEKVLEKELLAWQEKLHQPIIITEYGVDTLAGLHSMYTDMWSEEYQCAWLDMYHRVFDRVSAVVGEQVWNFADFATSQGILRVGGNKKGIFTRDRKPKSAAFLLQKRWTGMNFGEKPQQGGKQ", "assay": "Cleavage of GluAcCer by bacterial β-glucuronidase", "assay_type": "biochemical", "conditions": "β-glucuronidase from E. coli (Sigma), supplier's instructions", "from_the_text": "Glucornoylceramide (GluAcCer), a ceramide with a glucuronic acid headgroup was synthesized according to the methods described above. The metabolism of GluAcCer requires β-glucuronidase, an enzyme found in bacteria but not in human intestinal cells. Accordingly, dietary GluAcCer cannot be digested in the small intestine but should be hydrolyzed in the colon by the colonic microflora."}}}
{"molecule": "Fumonisin B", "values": [{"measurement": "cytostatic activity", "setting": "[1]", "value": "has cytostatic activity"}]}
{"molecule": "CCCCCCCCCCCCCC(O)CC(O)C(C)N", "note": "(stereo not drawn) [1-deoxy-5-hydroxy-sphinganine]", "values": [{"measurement": "potency in inducing cell death relative to sphingosine and sphinganine", "setting": "HT-29 cells", "value": "at least twice as potent"}, {"measurement": "cell death", "setting": "HT-29 cells; 15 μM treatment, after 24 hours", "value": "~100", "unit": "%"}]}
{"molecule": "sphingomyelin", "values": [{"measurement": "peak absorption of radiolabel after feeding", "setting": "[2]", "value": 10, "unit": "h"}, {"measurement": "radiolabel found in feces, mainly as ceramide", "setting": "[2]", "value": "21-46%"}, {"measurement": "radiolabel recovered in lymph", "setting": "[2]", "value": "up to 30%"}, {"measurement": "tumor incidence versus control", "setting": "DMH-induced tumors; milk sphingomyelin pilot and buttermilk sphingomyelin experiment", "value": "about half"}, {"measurement": "tumor type (adenomas versus adenocarcinomas)", "setting": "DMH-induced tumors; second study with buttermilk sphingomyelin, histological analyses", "value": "more adenomas versus adenocarcinomas than for the control"}, {"measurement": "number of overall tumors", "setting": "DMH-induced tumors; second study with buttermilk sphingomyelin", "value": "no reduction"}, {"measurement": "reduction in the number of aberrant colonic crypts induced by DMH", "setting": "[3]", "value": 50, "unit": "%"}, {"measurement": "label appeared in liver sphingolipids", "setting": "[4]", "value": "About 5%"}, {"measurement": "radiolabel progressed into the colon", "setting": "[4]", "value": "3-5%"}]}
{"molecule": "CCCCCCCCCCCCCCC[C@@H](O)[C@@H](N)CO", "note": "[sphinganine]", "values": [{"measurement": "treatment required to produce comparable (nearly 100%) cell death", "setting": "HT-29 cells; after 24 hours", "value": 50, "unit": "µM"}, {"measurement": "number of transformed foci in cells treated with just γ-irradiation", "setting": "C3H 10T1/2 cells", "value": "reduced the number of transformed foci"}, {"measurement": "promotion of transformed foci by phorbol esters", "setting": "C3H 10T1/2 cells", "value": "completely blocked"}]}
{"molecule": "CCCCCCCCCCCCC/C=C/C(O)C(N)CO", "note": "[sphingosine, D-erythro-4-trans-sphinganine]", "values": [{"measurement": "treatment required to produce comparable (nearly 100%) cell death", "setting": "HT-29 cells; after 24 hours", "value": 50, "unit": "µM"}, {"measurement": "number of transformed foci in cells treated with just γ-irradiation", "setting": "C3H 10T1/2 cells", "value": "reduced the number of transformed foci"}, {"measurement": "promotion of transformed foci by phorbol esters", "setting": "C3H 10T1/2 cells", "value": "completely blocked"}]}
{"molecule": "CCCCCCCCCCCCC/C=C/[C@@H](O)[C@H](CO[C@@H]1O[C@H](C(=O)O)[C@@H](O)[C@H](O)[C@H]1O)NC(=O)CCCCCCCCCCCCCCC", "note": "[GluAcCer, 1-O-B-D-Glucuronoyl-2N-palmitoylsphingosine]", "values": [{"measurement": "ACF", "setting": "[5]; 0.025% GluAcCer in AIN 76A diet", "value": "21 ±2.94"}, {"measurement": "inhibition of ACF formation", "setting": "[5]; 0.025 or 0.1% of the diet, versus control (FIG. 12)", "value": "20-30%"}, {"measurement": "ACF", "setting": "[5]; 0.1% GluAcCer in AIN 76A diet", "value": "19.2±3.09"}, {"measurement": "proliferation in the lower half of the colonic crypts", "setting": "colonic crypts; GluAcCer (FIG. 13b)", "value": "reduced the proliferation"}, {"measurement": "proliferation in the upper half of the crypts", "setting": "colonic crypts; both concentrations of GluAcCer in the diet (FIG. 13a)", "value": "reduced proliferation in the upper half of the crypts in a dose dependent manner"}, {"measurement": "ability to be cleaved by bacterial enzymes", "setting": "[6]", "value": "cleaved by bacterial enzymes"}]}
